Measured values reported in patent US20110082133A1, “PYRIDONE COMPOUNDS” (priority 2008, published 2011).

Legend:
[1] = test system: LPS-induced TNF-α production in THP-1 cells; experiment: Inhibitory action on LPS-induced TNF-α production in THP-1 cells; assay type: cell-based; details: Homo sapiens, 3 hours after LPS, ELISA
Procedure: Human monocytic cell line THP-1 cells were suspended in an assay medium (PRMI-1640 containing 10% fetal bovine serum, 100 unit/mL penicillin G sodium, and 100 μg/mL streptomycin sulfate), and seeded onto a 96-well plate at 1×10^5 cells/well. 50 μL/well of an assay medium containing a test compound was added thereto, followed by incubation at 37° C. for 30 minutes. Further, 50 μL/well of an assay medium containing 1 to 5 μg/mL of LPS was added thereto, and the TNF-α concentration in the assay medium of each well after 3 hours was measured. The measurement was carried out by means of a standard ELISA method. A 96-well plate which had been coated overnight with an anti-human TNF monoclonal antibody (clone: MAb1) (manufactured by Becton, Dickinson and Company) as a capture antibody was washed with a wash buffer (PBS containing 0.05% Tween-20), and PBS containing 10% fetal bovine serum was incubated at room temperature for 1 hour to perform blocking. After washing with a wash buffer, 100 μL/well of the assay medium to be measured was incubated at 4° C. overnight. As the standard material to be measured, a recombinant human TNF (manufactured by Becton, Dickinson and Company) was used. After washing with a wash buffer, 100 μL of a biotinylated anti-human TNF monoclonal antibody (clone: MAb11) as a detection antibody was treated at room temperature for 1 hour. After washing with a wash buffer, it was treated with 100 μL/well of an HRP-labeled Streptavidin (manufactured by Zymed Laboratories, Inc.) at room temperature for 30 minutes, and washed again. Treatment was conducted using 100 μL/well of a TMB (3,3′,5,5′-tetramethylbenzidine) substrate liquid at room temperature for 20 minutes in a dark room. A 2 M sulfuric acid was added thereto at 50 μL/well to stop the reaction, and an absorbance at 450 nm/570 nm was measured by means of a plate reader SPECRA max (manufactured by Molecular Devices Inc.).

rat EP4 receptor [2] = molecular target: T1, rat EP4 receptor (Rattus norvegicus, UniProt P43114); experiment: Evaluation test on EP4 receptor affinity in rat ([3H]PGE2 receptor binding test, membrane fraction); design: expressed in transfected cells; host or cells: HEK293 cells, transient transfection (Lipofectamine 2000); membrane fraction used; details: [3H]PGE2 0.3 nM, membrane fraction of rat EP4 expressing HEK293 cells
Procedure: A rat EP4 receptor cDNA was subcloned into an expression vector (pcDNA3.1-V5-His-topo, manufactured by Invitrogen Corporation) to prepare a rat EP4 expression vector. HEK293 cells were cultured in a collagen type I-treated 15 cm dish (manufactured by Asahi Techno Glass Co. Ltd.) to a confluence of 70%. An Opti-MEM culture medium at 1.2 mL/dish and a transfection reagent (Lipofectamine 2000, manufactured by Invitrogen Corporation) at 60 μL/dish were mixed, followed by being left to stand at room temperature for 5 minutes. Then, the rat EP4 receptor expression vector at 15 μg/dish was added thereto, followed by being left to stand at room temperature for 30 minutes. The liquid mixture of the transfection reagent was added into the dish, followed by culturing for 20 to 24 hours. The cell culture was carried out in a CO2 incubator (37° C., 5% CO2).
The culture medium was removed by suction, 10 mL of cooled PBS was added thereto per 15 cm dish, and the cells were scraped using a cell scraper. After washed with cooled PBS (1,200 rpm, 4° C., 5 minutes), suspended in 6 mL/dish of cooled 20 mM Tris-HCl (pH 7.4; manufactured by Nacalai Tesque Inc., 5 mM EDTA included) and homogenized using a Polytron, the homogenate was centrifuged (26,000 rpm, 20 minutes, 4° C.). The obtained precipitate was resuspended in cooled 20 mM Tris-HCl and homogenized again using a Polytron, and the homogenate was centrifuged (26,000 rpm, 20 minutes, 4° C.). The obtained precipitate was resuspended in 50 mM HEPES (pH 7.5; manufactured by Dojindo Laboratories) at 1 mL per dish, homogenized using a Polytron, and freeze-stored at −80° C. as a membrane fraction. At this time, a part thereof was used for the measurement of the protein concentration. Measurement of the protein concentration was carried out using a Protein assay stain (manufactured by Bio-Rad Laboratories) in accordance with a standard Protocol as appended in duplicate.
[^3H]PGE2 50 μL (final concentration 0.3 nM; manufactured by Perkin Elmer Co., Ltd.), 100 μL (20 μg/well) of the membrane fraction prepared from the rat EP4 expression cell, and 50 μL of a test compound were mixed in a 96-well microplate (manufactured by Sumitomo Bakelite Co., Ltd.), incubated at room temperature for 1 hour, then filtered by suction on a microplate (UniFilter-96 GF/B, manufactured by Perkin Elmer Co., Ltd.) using a cell harvester (FilterMate Harvester, manufactured by Perkin Elmer Co., Ltd.), and washed three times with 300 μL/well of a cooled assay buffer (50 mM HEPES, 10 mM MgCl2). Dilution of [^3H]PGE2 and the membrane fraction was carried out using the assay buffer, and dilution of the test compound and the unlabeled PGE2 was carried out using dimethyl sulfoxide and the assay buffer. The UniFilter-96 GF/B was treated by preliminarily washing twice with 200 μL/well of the cooled assay buffer. The UniFilter-96 GF/B after filtration was dried in a dryer overnight, 50 μL/well of a liquid scintillation cocktail (MicroScint20, manufactured by Perkin Elmer Co., Ltd.) was added thereto, and the radioactivity was then measured using a liquid scintillation counter for a microplate (TopCount, manufactured by Perkin Elmer Co., Ltd.). For measurement of the non-specific binding, an unlabeled PGE2 (final concentration 1 μM; manufactured by Cayman Chemical Company) was added. All of the measurements were carried out in duplicate, and the specific binding amount was determined by subtracting the non-specific binding amount from the total binding amount.
According to the test method as described above, the rat EP4 receptor affinity (Ki) of the compound of the formula (I) was measured. […] In this connection, Ex means Example Compound number.

hindlimb blood flow = experiment: Hindlimb blood flow increasing action in anesthetized rat; assay type: in vivo, Wistar male rats; details: 2 hours after administration, solvent group set as 100%
Procedure: Wistar male rats were used. The test compound was orally administered, and after 2 hours, the hindlimb blood was measured using a laser blood flow imaging apparatus (PIM II, manufactured by Integral Corporation). At 20 minutes before the measurement, 60 mg/kg of pentobarbital was intraperitoneally administered to conduct anesthesia.

rat EP4 receptor [3] = molecular target: T1, rat EP4 receptor; experiment: EP4 receptor agonistic action in rat (cAMP increasing action in rat EP4 receptor expression CHO-K1 cells); assay type: cell-based; design: expressed in transfected cells; details: cAMP increasing action by 1 μM PGE2 taken as 100%
Procedure: The agonistic activity was evaluated by the cAMP increasing action in the rat EP4 receptor expression cells. The rat EP4 receptor expression vector was introduced into CHO-K1 cells (American Type Culture Collection) to prepare a rat EP4 receptor stable expression cell line. These cells were seeded onto a 96-well microplate at 2×10^4 cell/well, and used for the experiment the next day. The culture medium of each well was removed by suction, 100 μL/well of an assay culture medium (2 μM indomethacin, 0.1% bovine serum albumin-containing α-MEM) was added thereto, and incubated at 37° C. for 1 hour. The culture medium was removed again by suction, and replaced with 100 μL/well of an assay culture medium comprising a test compound and 1 mM IBMX (3-isobutyl-1-methylxanthine). After incubating at 37° C. for 30 minutes, the culture medium was removed by suction, 100 μL/well of a cell lysate (0.2% Triton-X100-containing phosphate buffer physiological saline) was put thereinto, and the plate was shaken for 10 minutes. Using a cAMP femto 2 kit (manufactured by Cis Bio International), the cAMP concentration in the cell lysate was measured. Further, the cAMP increasing action (%) was calculated with the cAMP increasing action by 1 μM PGE2 was taken as 100%.

T1 sequence (P43114 whole entry): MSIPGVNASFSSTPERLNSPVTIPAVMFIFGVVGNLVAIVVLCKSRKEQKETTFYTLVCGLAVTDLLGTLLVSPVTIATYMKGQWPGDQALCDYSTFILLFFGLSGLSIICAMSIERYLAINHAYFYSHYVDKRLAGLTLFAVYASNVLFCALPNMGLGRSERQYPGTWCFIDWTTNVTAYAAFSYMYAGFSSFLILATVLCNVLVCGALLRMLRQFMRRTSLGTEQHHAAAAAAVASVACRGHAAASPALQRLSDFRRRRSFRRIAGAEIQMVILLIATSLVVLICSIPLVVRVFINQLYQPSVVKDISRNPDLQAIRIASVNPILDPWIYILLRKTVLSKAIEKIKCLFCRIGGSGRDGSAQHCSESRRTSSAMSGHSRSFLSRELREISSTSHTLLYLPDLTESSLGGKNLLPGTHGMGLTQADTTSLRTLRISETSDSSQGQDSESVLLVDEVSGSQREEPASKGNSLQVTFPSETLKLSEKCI

SMILES	Ki (rat EP4 receptor [2]) [nM]	Blood flow relative to the group administered with the solvent (hindlimb blood flow; dose 0.3 mg/kg oral) [%]	further results
CN(Cc1c(Cl)cc(Cl)c(=O)n1CCc1ccc(C(=O)O)cc1)c1cccc(C(F)(F)F)c1 [Example 159]	3.3	–	IC50 [1]: 2.7 nM; Blood flow relative to the group administered with the solvent (hindlimb blood flow; dose 0.1 mg/kg oral): 122%
CCC[C@H]1CCCN1Cc1c(Br)ccc(=O)n1CCc1ccc(C(=O)O)cc1 [Example 207]	–	–	Blood flow relative to the group administered with the solvent (hindlimb blood flow; dose 1 mg/kg oral): 140%
CCc1cccc(N(C)Cc2c(Cl)cc(Cl)c(=O)n2CCc2ccc(C(=O)O)cc2)c1 [Example 106]	28	126	–

Second part, led by results:

Ki (rat EP4 receptor [2]) [nM]	SMILES	Blood flow relative to the group administered with the solvent (hindlimb blood flow; dose 0.3 mg/kg oral) [%]	further results
3.2	CCOc1ccc2c(c1)N(Cc1c(Cl)cc(Cl)c(=O)n1CCc1ccc(C(=O)O)cc1)CC2 [Example 10, 4-(2-{3,5-dichloro-6-[(6-ethoxy-2,3-dihydro-1H-indol-1-yl)methyl]-2-oxopyridin-1(2H)-yl}ethyl)benzoic acid]	124	–
2.9	CCC[C@H]1CCCN1Cc1c(Cl)cc(Cl)c(=O)n1CCc1ccc(-c2n[nH]c(=O)o2)cc1 [Example 208]	–	cAMP increasing action (%) at 10 μM (rat EP4 receptor [3]): 83%
